The values that follow come from patent US12583841B2, “Tetrahydropyrrolocyclic compound and application thereof” (Breakthrough Pharmaceuticals Inc., priority 2021, dated 2026).

SMILES strings stand for the structures. pIC50: −log10 of the molar value.

For one assay, the system named is SD rats. As to the kind of experiment: Effect on spontaneous activities of SD rats. It counts as in vivo. The following applies: SD rat, 30 mg/kg, recorded 60 min from 30 minutes after administration, Mean±SEM; blank vehicle 31.91 ± 3.92. As for the experimental part: Test purpose: to judge the effect of the test compound on the activity of rats by measuring the spontaneous activity distance of rats in a period of time.
Test scheme: 12 male SD rats aged 7 weeks were adapted in the laboratory 1 day before the start of the test. On the day of the experiment, the rats were randomly divided into 2 groups according to their body weight, with 6 rats in each group, and the rats were given blank vehicle and compound 8 (30 mg/kg), respectively. The animals were put into a test box 30 minutes after administration, and the distance data of animal activity were recorded every 5 min with Any-maze software, and the recording was continued for 60 min. By comparing the total distance of animal activity within the recording time, it is judged whether the drug has a significant effect on the spontaneous activity of the animal. The experimental data were represented by the mean±[…] (Mean±SEM). The statistical method adopted one-way analysis of variance plus Dunnett's multiple comparisons. P<0.05 was represented as *, p<0.01 was represented as **, and p<0.001 was represented as ***.

The next assay concerns the target T1, OX1R (Homo sapiens, UniProt O43613).
T1 construct: expressed in transfected cells
T1 sequence (O43613 1-425): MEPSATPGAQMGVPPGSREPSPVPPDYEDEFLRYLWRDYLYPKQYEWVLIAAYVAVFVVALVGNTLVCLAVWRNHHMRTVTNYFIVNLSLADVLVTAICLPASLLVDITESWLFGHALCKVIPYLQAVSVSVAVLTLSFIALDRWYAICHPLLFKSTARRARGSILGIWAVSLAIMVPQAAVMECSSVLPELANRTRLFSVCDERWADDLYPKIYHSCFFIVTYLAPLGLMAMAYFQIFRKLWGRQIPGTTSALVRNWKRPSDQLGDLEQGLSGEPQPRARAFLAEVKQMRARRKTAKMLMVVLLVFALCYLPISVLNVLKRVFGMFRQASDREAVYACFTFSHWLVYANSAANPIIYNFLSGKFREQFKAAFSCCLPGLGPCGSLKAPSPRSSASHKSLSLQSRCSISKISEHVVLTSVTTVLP
Nature of the assay: FLIPR intracellular calcium antagonism test, HEK293-OX1R cells. Format: cell-based. The note with it: Orexin A at EC70, read-out: hOXIR IC50. As for the experimental part:
The change of intracellular calcium signal was detected by FLIPR, and the antagonism of the compounds on OX1R and OX2R receptors was evaluated by using IC50 value of the compounds as an index.
• Cell lines: Transfected HEK293-OX1R and HEK293-OX2R stable cell lines • HEK293-OX1R cell culture medium (DMEM, Invitrogen #11960-044, 10% serum Gibco #10099141, L-Glutamine 1×, Gibco #25030, sodium pyruvate 1×, Gibco #11360, Geneticin 300 μg/mL, Gibco #10131) • HEK293-OX2R cell culture medium (DMEM, Invitrogen #11960-044, 10% serum Gibco #10099141, L-Glutamine 1×, Gibco #25030, sodium pyruvate 1×, Gibco #11360, Geneticin 300 μg/mL, Gibco #10131, Blasticin 2 μg/mL, Invitrogen #R21001)
Experimental Steps and Methods: • a) Cell seeding (HEK293-OX1R and HEK293-OX2R cells) • 1) preheating the culture medium, trypsin and DPBS under water bath at 37° C.; pipetting and removing the medium of cell culture and washing same with 10 mL of DPBS; • 2) adding the preheated trypsin to a culture flask, rotating the culture flask so that the trypsin evenly covered the culture flask, and putting the culture flask in a 37° C., 5% CO2 incubator for digestion for 1-2 min; • 3) suspending the cells with 10-15 mL of medium for each T150 and centrifuging at 800 rpm for 5 min; resuspending the cells with 10 mL of medium, pipetting 1 mL of the cell suspension and counting with Vi-cell; • 4) diluting OX1R cells with medium to 5×10^5 cells/mL, and diluting OX2R cells with medium to 4×10^5 cells/mL, and adding the diluted cells to 384 plate (Greiner.781946) with a multi-channel pipette (50 μL/well, 25000 cells/well for OX1R cells, 20000 cells/well for OX2R cells); placing the cell plate in a 37° C., 5% CO2 incubator overnight. • b) Compound loading: • 1) diluting the compound to 20 mM with DMSO, 3-fold dilution, 8 gradients, duplicate wells, and adding same to a compound plate with an Echo liquid handler; then adding 20 μL of buffer to maintain the final concentration of DMSO of 0.1%. • c) FLIPR experiment: • 1) washing off the cell culture medium in the 384 plate with a vacuum pump, adding […] Direct fluorescent dye, incubating in 37° C., 5% CO2 incubator for 1 h, and balancing at room temperature for another 10 min. • 2) EC50 test: manually diluting Orexin A on ice, 3-fold dilution, 8 gradients, duplicate wells; preparing a DMSO plate and keep the DMSO concentration to be 0.5%; putting the cell plate, OrexinA plate, and DMSO plate in FLIPR respectively, and reading the fluorescence value. • 3) calculating the EC70 value based on the EC50 value of Orexin A; preparing a 5×EC70 solution, adding same to 384 compound plate with a multi-channel pipette, and storing on ice; • 4) putting the compound plate, 5×EC70 plate, cell plate, and FLIPR tip in sequence in FLIPR, running the program, and reading the fluorescence value. • d) Data analyzing: using Prism5.0 to analyze the data, and calculating the IC50 value of the compound.
For orientation: Calcium flux is commonly read through the fluorescence of an indicator in the cells.

`COc1ccc(-n2nccn2)c(C(=O)N2C(c3nc4ccc(OC)cc4[nH]3)CC3CC32)c1` (centres unmarked) [Compound 8] had a Spontaneous activity distance in the assay with SD rats of 14.73 ± 1.38 meters. The pIC50 (in general, the negative decadic logarithm of the IC50, by convention in mol/L) on OX1R was 5.75.
